{"source": "patent US20140100290A1", "about": "“Method of treating a prostate condition” (priority 2012, published 2014)", "key": {"[1]": {"tested_on": "PARP cleavage in LNCaP cells", "test": "Western blot analysis of PARP cleavage in LNCaP cells", "type": "cell-based, Human", "conditions": "48 h treatment", "method": "Human metastatic prostate cancer cells, LNCaP, were obtained from ATCC (Manassas, Va., USA). Cells were grown in RPMI-1640 medium supplemented with 2mM glutamine, 10% FBS, 100 U/mL penicillin, and 100 μg/mL streptomycin. LNCaP cells were maintained in a humidified atmosphere of 5% CO2 at 37° C. in T-75 flasks and were subcultured when confluent. Experiments were conducted using cells with passage numbers ranging from 5-20.\nWestern blotting is a widely used analytical technique for detection of specific proteins separated from one another, according to their size, by gel electrophoresis. Application of an electric current induces proteins on the gel to move on to the membrane (nitrocellulose or PVDF) placed next to it. Proteins on the gel get transferred on to the membrane which is subsequently stained with the antibody. Once detected, the target protein will be visualized as a band on a blotting membrane, X-ray film, or an imaging system. […]\nAfter maintaining constant agitation at 4° C. for 30 minutes, lysates were collected in microcentrifuge tubes and centrifuged at 12,000 rpm at 4° C. for 20 minutes. […] Protein concentration was determined using the Pierce® BCA protein assay kit. […] Western blot images are representative of at least 3 independent experiments, while quantification data represent mean±S.E.M. of n>3 experiments."}, "[2]": {"tested_on": "cytochrome c release in PC-3 cells", "test": "Western blot analysis of cytochrome c release in PC-3 cells", "type": "cell-based, Human", "conditions": "48 h", "method": "Cell Line and Culture Conditions • Human metastatic, androgen insensitive prostate cancer cells, PC-3, were obtained from ATCC (Manassas, Va., USA). Cells were grown in F-12K medium supplemented with 2 mM glutamine, 10% FBS, 100 U/mL penicillin, and 100 μg/mL streptomycin. PC-3 cells were maintained in a humidified atmosphere of 5% CO2 at 37° C. in T-75 flasks and were subcultured when confluent.\nWestern blotting is a widely used analytical technique for detection of specific proteins separated from one another according to their size by gel electrophoresis. […] Once detected, the target protein will be visualized as a band on a blotting membrane, X-ray film, or an imaging system.\nCytochrome c is a heme-containing component of the electron transport chain in the mitochondrial membrane. […] In order to further confirm that carvacrol induced apoptosis in these cells, the release of cytochrome c from mitochondria into cytosol was analyzed using Western blot analysis in carvacrol-treated cells. […]\nAfter maintaining constant agitation at 4° C. for 30 minutes, lysates were collected in microcentrifuge tubes and centrifuged at 12,000 rpm at 4° C. for 20 minutes. […] Protein concentration was determined using the Pierce® BCA protein assay kit. […] Western blot images are representative of at least 3 independent experiments, while quantification data represent mean±S.E.M. of n≧3 experiments."}}}
{"smiles": "Cc1ccc(C(C)C)cc1O", "note": "[Carvacrol]", "values": [{"measurement": "cleavage of PARP (Western blot)", "setting": "[1]", "value": "demonstrated cleavage of PARP"}, {"measurement": "cytochrome c levels in cytosol (Western blot)", "setting": "[2]; 10 μM, compared to solvent control", "value": "Increase in cytochrome c levels in cytosol was observed"}, {"measurement": "cytochrome c levels (Western blot)", "setting": "[2]; 2000 μM, compared to 10 μM carvacrol-treated cells", "value": "decrease in levels of cytochrome c"}]}
